According to patent US20260097126A1, “PHARMACEUTICAL FORMULATIONS AND METHODS FOR THE TREATMENT OF METABOLIC AND LIVER DISORDERS” (priority 2022, published 2026):
Numbered stars: 1 amine (or outer) side, 2 acyl side, 3 side chain; on linkers, the order of the positions; unused ones are H or OH. Square brackets hold non-standard residues; d marks the D form. Side chains are listed from the residue outwards. Peptide text beside a SMILES is read from it. * marks the point of attachment. Nonadecanoyl(19-PO3H2) = O=C(CCCCCCCCCCCCCCCCCCP(=O)(O)O)*; γGlu = O=C(O)[C@H](CCC(=O)[*:2])N[*:1]; AEEA = NCCOCCOCC(=O)O; Aib = CC(C)(N)C(=O)O

Assays:
GLP-1 receptor [1] = target: T1, GLP-1 receptor (Homo sapiens, UniProt P43220); assay: TagLite binding assay, GLP-1 receptor
GIP receptor [2] = target: T2, GIP receptor (Homo sapiens, UniProt P48546); assay: TagLite binding assay, GIP receptor
T2 sequence (P48546 22-466): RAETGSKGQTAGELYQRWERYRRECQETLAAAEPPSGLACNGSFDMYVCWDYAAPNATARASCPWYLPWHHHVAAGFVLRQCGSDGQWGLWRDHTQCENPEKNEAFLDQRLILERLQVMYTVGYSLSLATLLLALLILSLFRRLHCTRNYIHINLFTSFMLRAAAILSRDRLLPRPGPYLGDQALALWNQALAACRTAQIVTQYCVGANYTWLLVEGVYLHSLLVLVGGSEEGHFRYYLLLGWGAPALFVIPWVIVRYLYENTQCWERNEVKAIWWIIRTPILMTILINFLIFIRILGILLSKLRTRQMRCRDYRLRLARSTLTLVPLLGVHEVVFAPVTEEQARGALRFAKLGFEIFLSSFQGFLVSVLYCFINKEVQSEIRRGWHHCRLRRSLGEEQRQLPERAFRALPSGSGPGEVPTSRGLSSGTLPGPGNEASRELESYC

[3] = test system: mice fed a Gubra amylin NASH (GAN) diet; assay: Biological effects in GAN diet-induced NASH mice; format: in vivo; conditions: after two weeks; for Gal-3 Total / Gal-3 Relative: liver Galectin-3, histological quantitative assessment; for α-SMA Total / α-SMA Relative: liver alpha-smooth muscle actin, histological quantitative assessment; for TG Total / TG Relative: liver triglycerides
Method: NASH was induced in mice by feeding mice a Gubra amylin NASH (GAN) diet as described in Boland et al. World J Gastroenterol. 2019, 25(33): 4904-4920. One week prior to administration of a first dose of compounds, the mice were weighed and randomized, and their food intake was measured. Mice were randomly assigned to dosing groups, with twelve mice per group. […] Compound dose titration (nmol/kg): 0.6 (day 0), 1.2 (day 1), 2.4 (day 2), 4.8 (day 3), 4.8 (day 4), 12 (day 5), 30.0 (from day 6).
After two weeks, animals were sacrificed. Plasma enzymes (P-ALT (alanine aminotransferase) and P-AST (aspartate aminotransferase)), total plasma triglycerides, and total plasma cholesterol were measured, and terminal necropsy of each liver was carried out, determining relative liver weight as a percentage of body weight, assaying total liver biochemistry including total liver triglycerides, plasma insulin and total liver cholesterol, as well as histological evaluation of Galectin-3, and alpha-smooth muscle actin.

GLP-1 receptor [4] = target: T1, GLP-1 receptor; assay: HSA modulated binding assay, GLP-1 receptor
GIP receptor [5] = target: T2, GIP receptor; assay: HSA modulated binding assay, GIP receptor
[6] = Pharmacokinetic study of Compounds 4, 14, 15, 17 in monkeys; conditions: cynomolgus monkey, plasma, sc, 0.2 mg/kg
Method: The formulations were administered to cynomolgus monkeys at a dose of 0.2 mg/kg. Plasma concentration versus time data was collected and pharmacokinetic values determined.

[7] = binding with 2% HSA to binding with 0% HSA

T1 sequence (P43220 24-463): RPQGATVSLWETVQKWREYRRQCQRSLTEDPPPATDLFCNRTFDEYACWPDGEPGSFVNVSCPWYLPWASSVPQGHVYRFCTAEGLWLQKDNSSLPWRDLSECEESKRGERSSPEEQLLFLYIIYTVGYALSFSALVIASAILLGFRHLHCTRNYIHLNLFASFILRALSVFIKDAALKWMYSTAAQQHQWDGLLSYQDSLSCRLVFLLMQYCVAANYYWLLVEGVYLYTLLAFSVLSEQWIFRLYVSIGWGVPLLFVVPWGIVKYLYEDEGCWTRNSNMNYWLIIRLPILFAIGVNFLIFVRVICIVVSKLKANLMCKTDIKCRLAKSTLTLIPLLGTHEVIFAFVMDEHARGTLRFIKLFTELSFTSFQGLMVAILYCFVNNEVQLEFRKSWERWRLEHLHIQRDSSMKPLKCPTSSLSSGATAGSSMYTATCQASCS

Row | Compound | Gal-3 Total [3] | α-SMA Total [3] | TG Total [3] | liver Galectin-3 compared to tirzepatide or vehicle (in words) [3] | liver alpha-smooth muscle actin compared to tirzepatide (in words) [3] | liver triglycerides compared to tirzepatide or vehicle (in words) [3] | Gal-3 Relative [3] | α-SMA Relative [3] | TG Relative [3] | other results
1 | tirzepatide [reference compound] | 138 ± 17 mg | 108 ± 22 mg | 80 ± 11 mg per/liver | – | – | – | – | – | – | GLP-1 receptor % Binding avg at CMax (GLP-1 receptor [1]): 0.20%; GIP receptor % Binding avg at CMax (GIP receptor [2]): −1.21%; GLP-1 receptor % Binding avg at CMax, 0% HSA (GLP-1 receptor [4]; 0% human serum albumin): −0.14%; GLP-1 receptor % Binding avg at CMax, 2% HSA (GLP-1 receptor [4]; 2% human serum albumin): 33.01%; binding affinity for albumin (in words) (GLP-1 receptor [4]; inferred from the HSA ratios at GLP-1 and GIP receptors): greater than that of Compound 4 or of Compound 12; GIP receptor % Binding avg at CMax, 0% HSA (GIP receptor [5]; 0% human serum albumin): −3.05%; GIP receptor % Binding avg at CMax, 2% HSA (GIP receptor [5]; 2% human serum albumin): 10.07%
2 | CC[C@H](C)[C@H](NC(=O)[C@H](CC(C)C)NC(=O)[C@H](Cc1c[nH]c2ccccc12)NC(=O)[C@H](CCC(N)=O)NC(=O)[C@@H](NC(=O)[C@H](Cc1ccccc1)NC(=O)[C@H](C)NC(=O)[C@H](CCCCNC(=O)COCCOCCNC(=O)COCCOCCNC(=O)CC[C@H](NC(=O)CCCCCCCCCCCCCCCCCCC(=O)O)P(=O)(O)O)NC(=O)[C@H](CCC(N)=O)NC(=O)[C@H](C)NC(=O)[C@@H](NC(=O)[C@H](CCCCN)NC(=O)[C@H](CC(=O)O)NC(=O)[C@H](CC(C)C)NC(=O)C(C)(C)NC(=O)[C@@H](NC(=O)[C@H](CO)NC(=O)[C@H](Cc1ccc(O)cc1)NC(=O)[C@H](CC(=O)O)NC(=O)[C@H](CO)NC(=O)[C@@H](NC(=O)[C@H](Cc1ccccc1)NC(=O)[C@@H](NC(=O)CNC(=O)[C@H](CCC(=O)O)NC(=O)C(C)(C)NC(=O)[C@@H](N)Cc1ccc(O)cc1)[C@@H](C)O)[C@@H](C)O)[C@@H](C)CC)[C@@H](C)CC)C(C)C)C(=O)N[C@@H](C)C(=O)NCC(=O)NCC(=O)N1CCC[C@H]1C(=O)N[C@@H](CO)C(=O)N[C@@H](CO)C(=O)NCC(=O)N[C@@H](C)C(=O)N1CCC[C@H]1C(=O)N1CCC[C@H]1C(=O)N1CCC[C@H]1C(=O)N[C@@H](CO)C(N)=O [Compound 8] | 117 ± 12 mg | 83 ± 8 mg | 75 ± 7 mg per/liver | lower relative and total liver Galectin-3 as compared to administration of tirzepatide or vehicle alone | lower relative and total liver alpha-smooth muscle actin as compared to administration of tirzepatide | lower relative and total liver triglycerides as compared to administration of tirzepatide or vehicle alone | 5.8 ± 0.6 percent fractional area | 4.3 ± 0.5 percent fractional area | 40 ± 3 mg per/g liver | IC50 (GLP-1 receptor [1]; read-out: GLP-1 receptor IC 50): 288 nM; IC50 (GIP receptor [2]; read-out: GIP receptor IC 50): 223 nM
3 | CC[C@H](C)[C@H](NC(=O)[C@H](CC(C)C)NC(=O)[C@H](Cc1c[nH]c2ccccc12)NC(=O)[C@H](CCC(N)=O)NC(=O)[C@@H](NC(=O)[C@H](Cc1ccccc1)NC(=O)[C@H](C)NC(=O)[C@H](CCC(N)=O)NC(=O)[C@H](CCC(N)=O)NC(=O)[C@H](C)NC(=O)[C@@H](NC(=O)[C@H](CCCCNC(=O)COCCOCCNC(=O)COCCOCCNC(=O)CC[C@H](NC(=O)CCCCCCCCCCCCCCCCCCP(=O)(O)O)C(=O)O)NC(=O)[C@H](CC(=O)O)NC(=O)[C@H](CC(C)C)NC(=O)C(C)(C)NC(=O)[C@@H](NC(=O)[C@H](CO)NC(=O)[C@H](Cc1ccc(O)cc1)NC(=O)[C@H](CC(=O)O)NC(=O)[C@H](CO)NC(=O)[C@@H](NC(=O)[C@H](Cc1ccccc1)NC(=O)[C@@H](NC(=O)CNC(=O)[C@H](CCC(=O)O)NC(=O)C(C)(C)NC(=O)[C@@H](N)Cc1ccc(O)cc1)[C@@H](C)O)[C@@H](C)O)[C@@H](C)CC)[C@@H](C)CC)C(C)C)C(=O)N[C@@H](C)C(=O)NCC(=O)NCC(=O)N1CCC[C@H]1C(=O)N[C@@H](CO)C(=O)N[C@@H](CO)C(=O)NCC(=O)N[C@@H](C)C(=O)N1CCC[C@H]1C(=O)N1CCC[C@H]1C(=O)N1CCC[C@H]1C(=O)N[C@@H](CO)C(N)=O [Compound 15] (H-Y[Aib]EGTFTSDYSI[Aib]LDK([AEEA-AEEA-γGlu-Nonadecanoyl(19-PO3H2)])IAQQAFVQWLIAGGPSSGAPPPS-NH2) | – | – | – | – | – | – | – | – | – | AUC(0-inf) [6]: 227 µg·h/mL; AUC(0-t) [6]: 221 µg·h/mL; CL/F [6]: 21.4 mL/day/kg; Cmax [6]: 2260 ng/mL; Tmax [6]: 18.7 h; Vd/F [6]: 0.114 L/kg; half-life [6]: 89.3 h
4 | CC[C@H](C)[C@H](NC(=O)[C@H](CC(C)C)NC(=O)[C@H](Cc1c[nH]c2ccccc12)NC(=O)[C@H](CCC(N)=O)NC(=O)[C@@H](NC(=O)[C@H](Cc1ccccc1)NC(=O)[C@H](C)NC(=O)[C@H](CCCCNC(=O)COCCOCCNC(=O)COCCOCCNC(=O)CC[C@H](NC(=O)CCCCCCCCCCCCCCCCCCP(=O)(O)OCc1ccccc1)P(=O)(O)O)NC(=O)[C@H](CCC(N)=O)NC(=O)[C@H](C)NC(=O)[C@@H](NC(=O)[C@H](CCCCN)NC(=O)[C@H](CC(=O)O)NC(=O)[C@H](CC(C)C)NC(=O)C(C)(C)NC(=O)[C@@H](NC(=O)[C@H](CO)NC(=O)[C@H](Cc1ccc(O)cc1)NC(=O)[C@H](CC(=O)O)NC(=O)[C@H](CO)NC(=O)[C@@H](NC(=O)[C@H](Cc1ccccc1)NC(=O)[C@@H](NC(=O)CNC(=O)[C@H](CCC(=O)O)NC(=O)C(C)(C)NC(=O)[C@@H](N)Cc1ccc(O)cc1)[C@@H](C)O)[C@@H](C)O)[C@@H](C)CC)[C@@H](C)CC)C(C)C)C(=O)N[C@@H](C)C(=O)NCC(=O)NCC(=O)N1CCC[C@H]1C(=O)N[C@@H](CO)C(=O)N[C@@H](CO)C(=O)NCC(=O)N[C@@H](C)C(=O)N1CCC[C@H]1C(=O)N1CCC[C@H]1C(=O)N1CCC[C@H]1C(=O)N[C@@H](CO)C(N)=O [Compound 12] | 113 ± 10 mg | 84 ± 8 mg | 63 ± 5 mg per/liver | lower relative and total liver Galectin-3 as compared to administration of tirzepatide or vehicle alone | lower relative and total liver alpha-smooth muscle actin as compared to administration of tirzepatide | lower relative and total liver triglycerides as compared to administration of tirzepatide or vehicle alone | 5.7 ± 0.5 percent fractional area | 4.4 ± 0.6 percent fractional area | 35 ± 3 mg per/g liver | GLP-1 receptor Ratio of HSA/No HSA (GLP-1 receptor [4]; [7]): 5.26; GIP receptor Ratio of HSA/No HSA (GIP receptor [5]; [7]): 1.70
